Test results as given in US8895599B2, “Lipoprotein lipase-activating compositions comprising benzene derivates” (Otsuka Pharmaceutical Factory, Inc., priority 2008, dated 2014).

Columns and labels:
human LPL mRNA = experiment: Test for increase in LPL mRNA expression (luciferase assay, HTB-92/p387/p383 cell line); format: cell-based; conditions: 120 h, HTB-92/p387/p383 cells, 5 days; for maximal fold induction: Max. Ind. Value=Lt/Lc, maximum luciferase activity over control; for EC50: concentration that increases LPL mRNA expression over the control by 50%
Description: Pharmacological Test 1 Test for Increase in LPL mRNA Expression
A luciferase assay was employed to simply and quickly detect an increase in human LPL mRNA. The principle of the assay is as follows:
Luciferase emits light when reacted with luciferine (substrate). The expression of LPL mRNA is controlled by 5′-UTR and 3′-UTR (promoter regions) of the LPL gene. By introducing the promoter regions of the LPL gene into a commercially available plasmid (for example, that produced by Clonetics Corp.) to produce a plasmid (reporter plasmid) that stably expresses luciferase in human cells, such a plasmid expresses luciferase only under conditions in which LPL mRNA can increase. Therefore, when the substrate is introduced to the expression system and the amount of luciferase expression (luciferase activity) is quantified as the extent of chemiluminescence, the amount of LPL mRNA expression can be estimated.
The test herein was performed as follows: Using a plasmid for the luciferase assay manufactured by Clontech, wherein human LPL 5′-UTR (Enerback, S., et al., Mol. Cell. Biol. 12 (10) (1992): 4622-4633) and 3′-UTR (Wion, K. L., et al., Science 235 (1987): 4796, 1638-1641) had been inserted, human-derived liposarcoma cell line SW872 (ATCC Accession No. HTB-92) was transformed to prepare an HTB-92/p387/p383 cell line, which stably expresses luciferase.
This HTB-92/p387/p383 cell line was introduced into a 225 cm^2 culture flask furnished with a culture medium and cultured at 37° C. in the absence of CO2 until reaching confluence. Leibovitz's L-15 culture medium (containing 10% FBS, 1% GlutaMaxII, 10 μg/ml streptomycin, 1 μg/ml puromycin, 250 μg/ml hygromycin B) was used as the culture medium. After reaching confluence, the cells were collected, plated on 384-well plates to have 20000 cells/well, and cultured with 50 μl/well of the culture medium under the same conditions as above (37° C., absence of CO2). After 3 days of culturing, the culture medium was replaced by 50 μl/well phenol-red-free DMEM (containing 10% FBS, 1% GlutaMax, 10 U/ml penicillin, 10 μg/ml streptomycin, 1 μg/ml puromycin, 250 μg/ml hygromycin, 1 μM dexamethasone, 0.5 μM IBMX; differentiation medium), and the cells were cultured for 5 more days at 37° C. in the presence of CO2 to differentiate.
Furthermore, the culture medium was replaced by a 50 μl/well medium containing a compound of the invention (compound prepared in an Example) as a test substance wherein the compound had been conditioned with DMSO to a specific concentration selected from 10^−4 M to 3×10^−10M. The cells were cultured for 5 days at 37° C. in the presence of CO2.
After 5 days of culturing, a luciferase substrate solution (manufactured by Promega Corporation) was introduced to each well in an amount of 30 μl/well. The cells were left to stand 10 minutes at room temperature, and luciferase activities were measured by a luminometer (a microplate scintilltion counter; The Wallac MicroBeta Trilux, manufactured by Perkin Elmer, Inc.).
Cells that had been cultured and differentiated in a differentiation medium prepared by adding 0.1% DMSO to the above-mentioned DMEM medium (differentiation medium) not containing phenol red were used as a control (i.e., cultured and differentiated for 5 days and then stimulated for 5 days). The luciferase activity of these control cells were measured as above. The EC50 value (the concentration of test substance that can increase the amount of LPL mRNA expression over the control by 50%, unit: M) was calculated based on the straight line obtained by plotting the results of the tests performed using the test substances at varying concentrations. The maximum induction (Max. Ind. values) was calculated according to the following equation: Max. Ind. Value=Lt/Lc wherein Lt represents the maximum luciferase activity occurred in response to test substance stimulation; and Lc represents the value indicating the luciferase activity of the control.

LPL = experiment: Test for LPL activity-increasing effect in normal rats (skeletal muscle LPL activity); format: in vivo; conditions: every day for 1 week, SD rats, soleus muscle, 4 h after administration
Procedure: Test for LPL Activity-Increasing Effect in Normal Rats
6-week-old SD rats (purchased from Charles River Japan) were used as subjects. The rats were divided into groups according to body weight at the age of 5 weeks. The rats in each test group were orally administered with a 5% gum arabic suspension in an amount of 5 ml/kg of body weight, the suspension containing the test compound of the invention in such an amount that the dose of the compound of the invention became 30 mg/kg of body weight in one group and 100 mg/kg of body weight in another group. The rats in a control group were orally administered with a 5% gum arabic suspension (not containing the test compound of the invention) in an amount of 5 ml/kg of body weight. Each sample suspension was orally administered every day at a specific time of day for 1 week starting when the rats reached the age of 6 weeks.
Four hours after the administration of the sample suspension, skeletal muscle tissues of the rats were collected, then freeze-clamped and stored under liquid nitrogen. LPL activity in the skeletal muscle tissues was measured by the following method.
The soleus muscle was homogenized in a chilled solution of 0.05 mol/L NH4OH—NH4Cl buffer (pH 8.5) containing 0.5 U/mL heparin at 1 mL/100 mg of tissue wet weight. After standing on ice for 60 min with vigorous mixing at intervals of 15 min, the homogenate was centrifuged at 3000 rpm and 4° C. for 10 min and the supernatant was separated.
The substrate solution was prepared by mixing 2 μCi of glycerol tri[1-^14C]oleate, 0.133 g of unlabeled triolein, 0.9 mL of 1% Triton X-100, and 0.9 mL of 4% bovine serum albumin. in 0.2 mol/L Tris-HCl buffer (pH 8.6) and 10.2 mL of 0.2 mol/L Tris-HCl buffer (pH 8.6). The mixture was emulsified by sonication on ice for 3 min.
In a glass test tube, 0.1 mL of the tissue extract, 0.05 mL of heat-inactivated rat serum and 0.15 mL of 4% bovine serum albumin in 0.2 mol/L Tris-HCl buffer (pH 7.4) were mixed. Enzyme reaction was started by adding 0.2 mL of the substrate solution and was carried out for 30 min. at 37° C.
The reaction was stopped by addition of 2 mL of 1.5 mol/L H2SO4/2-propanol (1:40, v/v), and 1 mL of distilled water and 3 mL of hexane were added into the test tube. After vigorously shaking for 10 min. at room temperature, the test tube was centrifuged for 10 min. at 3000 rpm.
The upper layer (3.5 mL) was collected in a new test tube and mixed with 1 mL of 0.1 mol/L KOH.
The test tube was vigorously shaken for 10 min. at room temperature and then centrifuged for 10 min. at 3000 rpm.
After removing the upper layer, 1 mL of the lower layer (water phase) was transferred into a vial for counting, neutralized with 50 μL of 1.3 mol/L HCl and mixed with 4 mL of scintillator. The radioactivity was measured using a liquid scintillation counter.
The LPL activity increase (%) was calculated from the measured values of LPL activity in the control group and test groups according to the following formula: LPL activity increase (%)=(Test group average value)/(Control group average value)×100−100

SMILES | EC50 (human LPL mRNA) | melting point | maximal fold induction (human LPL mRNA) | Increase of skeletal muscle LPL activity compared to control (%) (LPL; 30 mg/kg oral) | Increase of skeletal muscle LPL activity compared to control (%) (LPL; 100 mg/kg oral)
COc1cc(-c2cn3ccccc3n2)ccc1OCc1ccc(Cl)cc1Cl [Example 92] | – | 138 to 139 °C | – | – | –
COc1cc(-c2cn3ccccc3n2)ccc1OCc1ccc(F)cc1F [Example 93] | – | 137 to 138 °C | – | – | –
c1ccc(-c2cc3cc(-c4cn5ccccc5n4)ccc3o2)cc1 [Example 103] | 7.4 µM | 239.5 to 241 °C | 1.9 | – | –
COc1cc(-c2cnc3ccccn23)ccc1OCc1ccc(C#N)cc1 [Example 108] | – | 148 to 149 °C | – | – | –
COc1cc(-c2cn3ccccc3n2)ccc1Oc1ccc(Cl)cc1 [Example 114] | 7.2 µM | 148 to 149 °C | 1.5 | – | –
COc1cc(-c2nc3ccccn3c2Cl)ccc1Oc1ccccc1 [Example 115] | – | 108 to 109 °C | – | – | –
COc1cc(-c2cnc3ccccn23)ccc1OCc1ccc(Cl)c(Cl)c1 [Example 117] | 3.3 µM | – | 2.2 | – | –
COc1cc(-c2cccc3nccn23)ccc1OCc1ccc(C#N)cc1 [Example 120] | – | 155 to 157 °C | – | – | –
COc1cc(-c2cnc3ccccn23)ccc1OCc1ccc(C(F)(F)F)cc1 [Example 122] | – | 133 to 135 °C | – | – | –
COc1cc(-c2cnc3ccccn23)ccc1O[C@H](C)c1ccccc1 [Example 132] | 6.2 µM | – | 1.7 | – | –
COc1cc(-c2cn3ccccc3n2)ccc1O[C@@H](C)c1ccccc1 [Example 134] | 6.4 µM | 149 to 150 °C | 1.7 | – | –
COc1cc(-c2cnc3ccccn23)ccc1OC(C)c1ccccc1 (centres unmarked) [Example 135] | 5.2 µM | 113 to 113.5 °C | 1.8 | – | –
COc1cc(-c2cccc3nccn23)ccc1O [Example 137] | – | 177 to 178 °C | – | – | –
CCO[PH](=O)OCc1ccc(C(=O)Nc2ccc(Br)cc2C#N)cc1 (centres unmarked) [ethyl 4-[(4-bromo-2-cyanophenyl)carbamoyl]benzyl phosphonate, reference compound] | – | – | ~1.2 | – | –

The next lines start with results.

EC50 (human LPL mRNA) | melting point | SMILES | maximal fold induction (human LPL mRNA) | Increase of skeletal muscle LPL activity compared to control (%) (LPL; 30 mg/kg oral) | Increase of skeletal muscle LPL activity compared to control (%) (LPL; 100 mg/kg oral)
2 µM | 115 to 117 °C | COc1cc(-c2cn3ccccc3n2)ccc1OCc1ccccc1F [Example 4] | 1.7 | – | –
3.6 µM | 117 to 118 °C | COc1cc(-c2cn3ccccc3n2)ccc1OCc1cccc(F)c1 [Example 5] | 1.6 | – | –
6.7 µM | 175 to 177 °C | COc1cc(-c2cn3ccccc3n2)ccc1OCc1ccc(C#N)cc1 [Example 30] | 1.9 | 22% | 31%
– | 168 to 169 °C | COc1cc(-c2cn3cccc(OCc4ccccc4)c3n2)ccc1OCc1ccc(Br)cc1 [Example 85] | – | 9% | 36%
– | 115 to 117 °C | COc1cc(-c2cn3ccccc3n2)ccc1OCc1cc(F)ccc1F [Example 94] | – | – | –
– | 178 to 180 °C | COc1cc(-c2cn3cc(Br)ccc3n2)ccc1OCc1ccc(Cl)cc1 [Example 96] | – | – | –
– | 165 to 166 °C | COc1cc(-c2cn3cc(Br)ccc3n2)ccc1OCc1ccc(C#N)cc1 [Example 97] | – | – | –
– | 164 to 165 °C | COc1cc(-c2cn3cc(Br)cc(C)c3n2)ccc1OCc1ccccc1 [Example 98] | – | – | –
– | 177 to 178 °C | COc1cc(-c2cn3cc(Br)cc(C)c3n2)ccc1OCc1ccc(C#N)cc1 [Example 99] | – | – | –
– | 158 to 160 °C | COc1cc(-c2cn3cc(Br)c(C)c(C)c3n2)ccc1OCc1ccccc1 [Example 100] | – | – | –
– | 180 to 181 °C | COc1cc(-c2cn3cc(Br)c(C)c(C)c3n2)ccc1OCc1ccc(C#N)cc1 [Example 101] | – | – | –
– | 136 to 137 °C | COc1cc(-c2cn3ccccc3n2)ccc1OCc1c(F)cccc1F [Example 104] | – | – | –
3 µM | – | COc1cc(-c2cnc3ccccn23)ccc1OCc1ccc(Cl)cc1 [Example 109] | 1.5 | – | –
– | 164 to 166 °C | COc1cc(-c2cccc3nccn23)ccc1OCc1ccccc1 [Example 116] | – | – | –
– | 118 to 119 °C | COc1cc(-c2cnc3ccccn23)ccc1OCc1ccc(F)cc1 [Example 133] | – | – | –
2 µM | 95 to 97 °C | COc1cc(-c2cn3ccccc3n2)ccc1Oc1ccccc1 [Example 138] | 2 | – | –
